Source: ChEMBL document CHEMBL1201862, “PubChem BioAssay data set” (2004)
Activity calls are given as the source filed them.

Tests used:
[1] = molecular target: NACHT, LRR and PYD domains-containing protein 3 (Homo sapiens, UniProt Q96P20); assay: NALP3 inhibitors in yeast, dose response, luminescent (AID 488799); format: functional
Cytochrome P450 2C19 = Cytochrome P450 2C19 (Homo sapiens, UniProt P33261); assay: Cytochrome panel assay with activity outcomes. Panel member name: p450-cyp2c19 Compounds with AC50 equal or less than 10 uM are considered active; format: functional; conditions: read-out: AC50
Chain of Cytochrome P450 2C19 (P33261 whole entry): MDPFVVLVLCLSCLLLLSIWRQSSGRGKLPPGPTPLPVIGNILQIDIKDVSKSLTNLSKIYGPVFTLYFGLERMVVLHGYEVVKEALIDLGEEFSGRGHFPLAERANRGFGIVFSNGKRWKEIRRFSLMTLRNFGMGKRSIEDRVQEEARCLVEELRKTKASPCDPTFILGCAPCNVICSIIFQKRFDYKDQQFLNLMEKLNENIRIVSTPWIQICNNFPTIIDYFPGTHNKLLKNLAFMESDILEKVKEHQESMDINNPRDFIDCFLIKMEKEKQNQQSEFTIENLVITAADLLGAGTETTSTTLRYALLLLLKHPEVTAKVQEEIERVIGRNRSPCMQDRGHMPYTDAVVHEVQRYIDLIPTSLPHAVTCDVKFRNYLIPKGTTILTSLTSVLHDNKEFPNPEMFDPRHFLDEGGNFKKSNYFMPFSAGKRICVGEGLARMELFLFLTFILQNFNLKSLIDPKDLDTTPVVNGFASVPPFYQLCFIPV

HeLa = assay: HeLa cell cytotoxicity, dose response, cytotoxicity control, 24 h, cherry-picked samples (AID 504726); format: functional, cell-based; conditions: Homo sapiens;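 further: potency for cytotoxicity as loss of luminescence signal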
[2] = THP-1 cell cytotoxicity, dose response, cytotoxicity control for Vif-APOBEC3G degradation inhibitor project, THP-1 cells (AID 1117359); format: functional; conditions: Human immunodeficiency virus 1, THP-1
Cytochrome P450 2C9 = Cytochrome P450 2C9 (Homo sapiens, UniProt P11712)
[3] = molecular target: DNA (cytosine-5)-methyltransferase 1 (Homo sapiens, UniProt P26358); assay: DNMT1 methyltransferase inhibitors, confirmation, biochemical, fluorescent molecular beacon (AID 602386); format: functional
Chain of DNA (cytosine-5)-methyltransferase 1 (P26358 whole entry): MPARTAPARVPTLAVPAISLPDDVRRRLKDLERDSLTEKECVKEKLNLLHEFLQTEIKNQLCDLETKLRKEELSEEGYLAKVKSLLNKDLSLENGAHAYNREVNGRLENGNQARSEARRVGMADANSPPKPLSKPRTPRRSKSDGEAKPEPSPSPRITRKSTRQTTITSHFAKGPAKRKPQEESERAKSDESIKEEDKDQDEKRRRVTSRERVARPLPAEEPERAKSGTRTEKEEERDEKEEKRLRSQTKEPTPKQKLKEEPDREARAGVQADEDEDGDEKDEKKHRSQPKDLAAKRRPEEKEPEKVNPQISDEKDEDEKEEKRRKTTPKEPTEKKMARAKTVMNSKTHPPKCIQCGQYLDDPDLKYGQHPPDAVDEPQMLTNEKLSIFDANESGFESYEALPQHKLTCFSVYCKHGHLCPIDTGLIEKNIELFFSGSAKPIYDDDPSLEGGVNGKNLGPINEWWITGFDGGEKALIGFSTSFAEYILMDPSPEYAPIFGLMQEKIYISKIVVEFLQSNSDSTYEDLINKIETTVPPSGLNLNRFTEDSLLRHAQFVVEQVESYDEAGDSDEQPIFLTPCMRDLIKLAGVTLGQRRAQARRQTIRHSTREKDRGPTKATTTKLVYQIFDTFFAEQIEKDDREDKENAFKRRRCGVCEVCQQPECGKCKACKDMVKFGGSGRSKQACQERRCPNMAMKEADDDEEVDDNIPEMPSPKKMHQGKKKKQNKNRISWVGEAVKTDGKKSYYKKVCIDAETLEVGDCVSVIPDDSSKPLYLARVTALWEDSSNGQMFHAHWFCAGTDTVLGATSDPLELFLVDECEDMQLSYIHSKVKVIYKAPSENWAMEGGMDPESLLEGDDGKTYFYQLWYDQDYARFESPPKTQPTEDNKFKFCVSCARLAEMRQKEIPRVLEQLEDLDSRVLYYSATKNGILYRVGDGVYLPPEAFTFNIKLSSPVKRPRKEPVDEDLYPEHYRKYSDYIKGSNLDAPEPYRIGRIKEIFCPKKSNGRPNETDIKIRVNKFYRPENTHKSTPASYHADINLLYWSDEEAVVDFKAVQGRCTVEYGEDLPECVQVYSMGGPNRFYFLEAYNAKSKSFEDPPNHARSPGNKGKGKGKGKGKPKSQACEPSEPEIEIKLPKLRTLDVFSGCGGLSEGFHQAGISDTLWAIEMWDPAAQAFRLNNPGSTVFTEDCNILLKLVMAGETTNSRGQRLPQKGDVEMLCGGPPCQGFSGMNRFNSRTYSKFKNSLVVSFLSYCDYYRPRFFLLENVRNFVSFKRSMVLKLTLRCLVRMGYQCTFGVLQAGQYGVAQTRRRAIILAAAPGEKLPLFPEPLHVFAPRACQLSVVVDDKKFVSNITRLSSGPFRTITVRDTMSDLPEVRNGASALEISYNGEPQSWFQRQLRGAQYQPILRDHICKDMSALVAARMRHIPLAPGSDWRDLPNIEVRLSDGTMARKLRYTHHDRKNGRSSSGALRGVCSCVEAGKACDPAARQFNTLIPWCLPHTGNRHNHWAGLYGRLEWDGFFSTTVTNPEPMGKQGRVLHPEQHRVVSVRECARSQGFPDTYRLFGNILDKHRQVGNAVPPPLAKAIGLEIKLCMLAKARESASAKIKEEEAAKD

[4] = molecular target: Dual specificity protein phosphatase 3 (Homo sapiens, UniProt P51452); assay: VHR1 inhibitor Ki determination, SAR follow-up, biochemical, colorimetric (AID 2004)
[5] = molecular target: Signal transducer and activator of transcription 3 (Homo sapiens, UniProt P40763); assay: STAT3 activators, late-stage profile, late-stage follow-up, cell-based, STAT1 reporter, BCL3 qPCR, cytotoxicity, panel member STAT3 Activation (AID 2049)
Chain of Signal transducer and activator of transcription 3 (P40763 whole entry): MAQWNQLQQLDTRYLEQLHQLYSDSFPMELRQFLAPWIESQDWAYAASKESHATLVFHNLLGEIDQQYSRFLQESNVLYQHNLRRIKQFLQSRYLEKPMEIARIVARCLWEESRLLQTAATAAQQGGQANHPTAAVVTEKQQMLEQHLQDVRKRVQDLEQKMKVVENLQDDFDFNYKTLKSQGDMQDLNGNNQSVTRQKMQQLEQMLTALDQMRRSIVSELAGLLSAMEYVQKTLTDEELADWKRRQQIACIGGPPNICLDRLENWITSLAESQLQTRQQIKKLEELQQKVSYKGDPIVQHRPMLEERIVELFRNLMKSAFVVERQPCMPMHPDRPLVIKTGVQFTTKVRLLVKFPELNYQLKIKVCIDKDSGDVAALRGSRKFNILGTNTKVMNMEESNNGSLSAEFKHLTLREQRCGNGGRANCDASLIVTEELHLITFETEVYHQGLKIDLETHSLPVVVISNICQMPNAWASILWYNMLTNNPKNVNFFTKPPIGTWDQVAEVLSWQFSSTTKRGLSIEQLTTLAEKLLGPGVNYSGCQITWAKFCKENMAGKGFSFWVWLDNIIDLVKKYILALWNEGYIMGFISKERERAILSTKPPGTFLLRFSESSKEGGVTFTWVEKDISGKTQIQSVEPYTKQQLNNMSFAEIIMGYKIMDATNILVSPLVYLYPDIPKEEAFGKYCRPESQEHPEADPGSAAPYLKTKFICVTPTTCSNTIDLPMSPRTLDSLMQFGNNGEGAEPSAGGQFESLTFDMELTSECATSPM

Wee1-like protein kinase = Wee1-like protein kinase (Homo sapiens, UniProt P30291); assay: G2/M cell cycle arrest in HeLa, late-stage follow-up, mechanism study for Wee1 degradation inhibitor project, FACS, panel member Wee1 Degradation (AID 2088)
[6] = molecular target: G2/mitotic-specific cyclin-B1 (Homo sapiens, UniProt P14635); assay: G2/M cell cycle arrest in HeLa, late-stage follow-up, mechanism study for Wee1 degradation inhibitor project, FACS, panel member Cyclin B Degradation (AID 2088)
Chain of G2/mitotic-specific cyclin-B1 (P14635 whole entry): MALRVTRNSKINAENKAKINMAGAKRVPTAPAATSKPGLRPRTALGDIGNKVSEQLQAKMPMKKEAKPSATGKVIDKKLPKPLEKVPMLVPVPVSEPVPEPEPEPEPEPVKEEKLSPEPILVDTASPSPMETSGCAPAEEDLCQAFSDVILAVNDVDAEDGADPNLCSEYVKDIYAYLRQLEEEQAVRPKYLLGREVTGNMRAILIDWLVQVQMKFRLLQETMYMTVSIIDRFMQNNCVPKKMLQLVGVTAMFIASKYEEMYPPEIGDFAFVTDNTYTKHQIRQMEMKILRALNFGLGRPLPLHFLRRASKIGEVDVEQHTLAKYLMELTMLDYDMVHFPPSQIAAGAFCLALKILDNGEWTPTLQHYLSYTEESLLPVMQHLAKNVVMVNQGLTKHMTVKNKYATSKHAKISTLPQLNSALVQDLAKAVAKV

[7] = molecular target: Cyclin-dependent kinase 5/CDK5 activator 1 (Homo sapiens, UniProt Q00535); assay: CDK5/p35 kinase inhibitors, dose response, biochemical, cherry-picked samples, set 2 (AID 504545)
Chain of Cyclin-dependent kinase 5/CDK5 activator 1 (Q00535 whole entry): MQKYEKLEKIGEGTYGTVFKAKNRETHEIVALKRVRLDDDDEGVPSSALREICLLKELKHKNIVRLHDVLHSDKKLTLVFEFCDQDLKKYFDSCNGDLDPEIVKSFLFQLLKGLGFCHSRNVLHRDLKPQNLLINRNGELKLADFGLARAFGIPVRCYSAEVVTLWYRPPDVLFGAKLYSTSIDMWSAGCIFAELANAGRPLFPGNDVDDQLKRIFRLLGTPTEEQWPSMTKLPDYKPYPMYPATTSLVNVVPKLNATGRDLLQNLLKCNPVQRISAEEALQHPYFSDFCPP
Chain of Cyclin-dependent kinase 5/CDK5 activator 1 (Q15078 whole entry, further chain): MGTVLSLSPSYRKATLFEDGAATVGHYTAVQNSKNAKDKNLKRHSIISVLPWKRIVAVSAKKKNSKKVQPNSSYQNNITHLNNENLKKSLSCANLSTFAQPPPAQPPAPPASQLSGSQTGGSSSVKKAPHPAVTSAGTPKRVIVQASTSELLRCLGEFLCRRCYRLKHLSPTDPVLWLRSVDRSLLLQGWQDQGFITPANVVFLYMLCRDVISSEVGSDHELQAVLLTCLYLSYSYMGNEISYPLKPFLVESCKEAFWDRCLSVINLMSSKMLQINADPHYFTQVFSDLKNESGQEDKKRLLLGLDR

[8] = Luminescence Cell-Based Dose Retest to Confirm Inhibitors of Cancer Stem Cells. [Related pubchem assays (depositor defined):AID2717, AID2721]; format: functional; conditions: Homo sapiens
[9] = molecular target: T1, Ubiquitin-conjugating enzyme E2 N (Homo sapiens, UniProt P61088); format: functional;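 further: Dose-response confirmation in a TR-FRET assay detecting UBC13-driven polyubiquitin chain formation, inhibition measured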
T1 sequence (P61088 whole entry): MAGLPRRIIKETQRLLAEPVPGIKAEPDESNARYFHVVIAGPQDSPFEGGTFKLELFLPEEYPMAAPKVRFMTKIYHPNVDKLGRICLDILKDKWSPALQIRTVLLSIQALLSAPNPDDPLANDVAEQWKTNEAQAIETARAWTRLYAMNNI

[10] = molecular target: Metabotropic glutamate receptor 4 (Homo sapiens, UniProt Q14833); assay: Modulation of the Metabotropic Glutamate Receptor mGluR4: Potency at human mGluR4. Modulation of intracellular Ca2+ using Fluo-4, AM, in CHO expressing recombinant receptor [Related pubchem assays (depositor defined):AID2437, AID2807]; format: functional, cell-based

Chain of NACHT, LRR and PYD domains-containing protein 3 (Q96P20 whole entry, the tested form may be a part): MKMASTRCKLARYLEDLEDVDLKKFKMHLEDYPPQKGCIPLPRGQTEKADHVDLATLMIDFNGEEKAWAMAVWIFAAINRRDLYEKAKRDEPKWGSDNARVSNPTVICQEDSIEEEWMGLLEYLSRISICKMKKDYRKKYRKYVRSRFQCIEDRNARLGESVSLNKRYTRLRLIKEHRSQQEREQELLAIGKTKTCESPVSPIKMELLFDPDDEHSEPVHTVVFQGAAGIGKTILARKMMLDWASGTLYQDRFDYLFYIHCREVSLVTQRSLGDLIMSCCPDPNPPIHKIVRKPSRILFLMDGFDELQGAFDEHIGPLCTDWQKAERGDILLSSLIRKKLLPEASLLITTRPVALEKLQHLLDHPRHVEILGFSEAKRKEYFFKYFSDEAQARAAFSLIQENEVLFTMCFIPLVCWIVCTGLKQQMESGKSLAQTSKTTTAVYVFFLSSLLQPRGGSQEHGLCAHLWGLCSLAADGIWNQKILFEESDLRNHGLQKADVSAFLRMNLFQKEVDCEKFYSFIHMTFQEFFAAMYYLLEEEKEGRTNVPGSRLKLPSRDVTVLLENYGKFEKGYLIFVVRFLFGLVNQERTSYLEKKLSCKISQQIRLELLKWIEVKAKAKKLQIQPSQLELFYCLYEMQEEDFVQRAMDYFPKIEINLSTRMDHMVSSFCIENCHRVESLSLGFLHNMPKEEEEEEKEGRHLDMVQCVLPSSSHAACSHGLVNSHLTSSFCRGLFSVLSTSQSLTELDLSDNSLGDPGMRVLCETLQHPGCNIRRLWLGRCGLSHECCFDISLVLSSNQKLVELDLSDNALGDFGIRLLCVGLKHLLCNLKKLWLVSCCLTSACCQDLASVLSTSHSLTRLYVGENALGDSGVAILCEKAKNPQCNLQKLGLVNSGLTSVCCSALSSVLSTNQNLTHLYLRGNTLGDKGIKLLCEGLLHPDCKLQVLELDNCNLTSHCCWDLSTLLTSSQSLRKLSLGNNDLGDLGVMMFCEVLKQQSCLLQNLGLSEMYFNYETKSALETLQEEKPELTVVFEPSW

With CN(CC(=O)N1CCc2ccccc2C1)c1ccccc1 the IC50 [1] was > 100 µM (inactive).

In the case of COC(=O)\C(C(C)=O)=C(/C=C/C=C/C=C/N(C)C)N(C)C, the AC50 (Cytochrome P450 2C19) is reported as 14.1 µM (inconclusive), the AC50 (HeLa) is reported as 274 µM (active) and the CC50 [2] is reported as > 40 µM (active). For the same compound, the AC50 (Cytochrome P450 2C9) was 15.8 µM (inconclusive) and the IC50 [3] was 8.38 µM (active).

With COc1ccc(-c2csc(Nc3ccc(N)cc3)n2)cc1OC the Ki [4] was 71.1 µM (inactive).

For COc1cc(NC(=O)c2cc(C3CC3)on2)cc(OC)c1, the EC50 [5] was > 5.57 µM (inactive).

With Cc1ccc(NC(=O)CCCOc2cc(=O)n(C)c3ccccc23)c(Cl)c1 the EC50 (Wee1-like protein kinase) was > 49.7 µM (inactive) and the EC50 [6] was > 49.7 µM (inactive).

With CC[C@H](CO)Nc1nc(Nc2cccc(Cl)c2)c2ncn(C(C)C)c2n1 the AC50 [7] was 0.275 µM (active), the AC50 [8] was 6.4 µM (active) and the IC50 [9] was > 20 µM (inactive).

With N#Cc1ccc(NC(=O)c2ccccn2)cc1C(F)(F)F the EC50 [10] was 1.77 µM (active).
